Measured values as given in patent US11479551B2, “MTA-cooperative PRMT5 inhibitors” (Mirati Therapeutics, Inc., priority 2019, dated 2022).
Where two headings read alike, the source gives them in different places.

Target: PRMT5/MEP50 complex (Homo sapiens (Human), UniProt O14744)
Test: PRMT5:MEP50 FlashPlate Assay (histone H4 peptide substrate, plus and minus MTA)
Assay type: biochemical
Experimental: The PRMT5 inhibitory activity of compounds of the present invention was determined using either a PRMT5:MEP50 FlashPlate Assay (Reaction Biology Corporation) or a PRMT5:MEP50 HotSpot Assay (Reaction Biology Corporation).
1. PRMT5:MEP50 FlashPlate Assay

[1] = IC50 + 2 μM MTA (nM), in the presence of 2 μM MTA
[2] = in the absence of MTA, read-out: IC50

Chain of PRMT5/MEP50 complex (O14744 2-637): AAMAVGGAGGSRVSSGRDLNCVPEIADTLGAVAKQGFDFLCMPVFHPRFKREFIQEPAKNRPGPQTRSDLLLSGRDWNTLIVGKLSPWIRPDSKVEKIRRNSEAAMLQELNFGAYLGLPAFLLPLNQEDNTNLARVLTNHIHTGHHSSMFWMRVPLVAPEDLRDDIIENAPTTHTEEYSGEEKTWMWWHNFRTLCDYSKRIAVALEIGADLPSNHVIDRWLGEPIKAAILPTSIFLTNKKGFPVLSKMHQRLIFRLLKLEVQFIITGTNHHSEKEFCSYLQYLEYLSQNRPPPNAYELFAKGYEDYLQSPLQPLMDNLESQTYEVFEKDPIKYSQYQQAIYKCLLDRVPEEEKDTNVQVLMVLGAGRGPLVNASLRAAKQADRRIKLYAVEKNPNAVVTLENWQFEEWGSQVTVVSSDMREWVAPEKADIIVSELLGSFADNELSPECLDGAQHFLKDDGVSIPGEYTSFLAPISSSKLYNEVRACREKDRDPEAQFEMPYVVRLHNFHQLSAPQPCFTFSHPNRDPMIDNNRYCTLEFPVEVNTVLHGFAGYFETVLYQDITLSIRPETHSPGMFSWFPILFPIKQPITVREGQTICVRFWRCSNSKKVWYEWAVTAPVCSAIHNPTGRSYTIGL
Chain of PRMT5/MEP50 complex (Q9BQA1 2-342 partner): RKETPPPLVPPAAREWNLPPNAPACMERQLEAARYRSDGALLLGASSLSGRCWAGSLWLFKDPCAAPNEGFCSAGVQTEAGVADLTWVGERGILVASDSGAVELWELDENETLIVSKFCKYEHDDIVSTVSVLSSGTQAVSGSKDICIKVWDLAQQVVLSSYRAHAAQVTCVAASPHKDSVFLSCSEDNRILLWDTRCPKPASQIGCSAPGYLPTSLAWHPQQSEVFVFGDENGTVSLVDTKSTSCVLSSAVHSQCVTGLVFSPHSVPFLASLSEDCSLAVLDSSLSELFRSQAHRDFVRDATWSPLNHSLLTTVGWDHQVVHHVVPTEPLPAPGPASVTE

IC50 [1] [nM] | IC50 [2] [nM] | SMILES
57000 | > 100000 | NCc1n[nH]c(=O)c2ccc(C3CCOC3)cc12 (racemic) [Example 5-2, (R,S)-4-(aminomethyl)-6-(THF-3-yl)phthalazin-1(2H)-one]
1400 | 34800 | NCc1n[nH]c(=O)c2ccc(-c3cccnc3)cc12 [Example 1-5, 4-(aminomethyl)-6-(pyridin-3-yl)phthalazin-1(2H)-one]
10000 | > 100000 | Cn1cc(-c2ccc3c(CN)n[nH]c(=O)c3c2)cn1 [Example 1-8, 4-(aminomethyl)-7-(1-methyl-1H-pyrazol-4-yl)phthalazin-1(2H)-one]
3700 | 89600 | NCc1n[nH]c(=O)c2ccc(-c3cncs3)cc12 [Example 3-1, 4-(aminomethyl)-6-(thiazol-5-yl)phthalazin-1(2H)-one]
42000 | 10000 | NCc1n[nH]c(=O)c2ccc(-c3ccnnc3)cc12 [Example 3-2, 4-(aminomethyl)-6-(pyridazin-4-yl)phthalazin-1(2H)-one]
7400 | 87900 | Cc1ccc(-c2ccc3c(=O)[nH]nc(CN)c3c2)cn1 [Example 3-5, 4-(aminomethyl)-6-(6-methylpyridin-3-yl)phthalazin-1(2H)-one]
33 | 1230 | Cc1c(-c2ccc3c(=O)[nH]nc(CN)c3c2)cnn1C [Example 3-9, 4-(aminomethyl)-6-(1,5-dimethyl-1H-pyrazol-4-yl)phthalazin-1(2H)-one]
100 | 3910 | Cc1cncc(-c2ccc3c(=O)[nH]nc(CN)c3c2)c1 [Example 3-10, 4-(aminomethyl)-6-(5-methylpyridin-3-yl)phthalazin-1(2H)-one]
5000 | 131000 | Cc1ncc(-c2ccc3c(=O)[nH]nc(CN)c3c2)cn1 [Example 3-11, 4-(aminomethyl)-6-(2-methylpyrimidin-5-yl)phthalazin-1(2H)-one]
650 | 18700 | CCn1cc(-c2ccc3c(=O)[nH]nc(CN)c3c2)cn1 [Example 3-15, 4-(aminomethyl)-6-(1-ethyl-1H-pyrazol-4-yl)phthalazin-1(2H)-one]
33000 | > 1e+06 | Cc1ncccc1-c1ccc2c(=O)[nH]nc(CN)c2c1 [Example 3-18, 4-(aminomethyl)-6-(2-methylpyridin-3-yl)phthalazin-1(2H)-one]
180 | 6360 | Cc1ccncc1-c1ccc2c(=O)[nH]nc(CN)c2c1 [Example 3-19, 4-(aminomethyl)-6-(4-methylpyridin-3-yl)phthalazin-1(2H)-one]
1800 | 39400 | Cc1cc(-c2ccc3c(=O)[nH]nc(CN)c3c2)[nH]n1 [Example 3-21, 4-(aminomethyl)-6-(5-methyl-1H-pyrazol-3-yl)phthalazin-1(2H)-one]
35000 | > 100000 | Cc1nn(C)cc1-c1ccc2c(=O)[nH]nc(CN)c2c1 [Example 3-22, 4-(aminomethyl)-6-(1,3-dimethyl-1H-pyrazol-4-yl)phthalazin-1(2H)-one]
> 100000 | > 100000 | NCc1n[nH]c(=O)c2ccc(-c3cnco3)cc12 [Example 3-28, 4-(aminomethyl)-6-(oxazol-5-yl)phthalazin-1(2H)-one]

The next lines start with the compound.

SMILES | IC50 [1] [nM] | IC50 [2] [nM]
NCc1n[nH]c(=O)c2cc(-c3ccccn3)ccc12 [Example 1-4, 4-(aminomethyl)-7-(pyridin-2-yl)phthalazin-1(2H)-one] | 39000 | > 100000
CCc1ccc(-c2ccc3c(=O)[nH]nc(CN)c3c2)cn1 [Example 3-3, 4-(aminomethyl)-6-(6-ethylpyridin-3-yl)phthalazin-1(2H)-one] | 25000 | 10000
Cc1cc(-c2ccc3c(=O)[nH]nc(CN)c3c2)cnc1C [Example 3-4, 4-(aminomethyl)-6-(5,6-dimethylpyridin-3-yl)phthalazin-1(2H)-one] | 1400 | 38300
NCc1n[nH]c(=O)c2ccc(-c3cnc4ccccc4c3)cc12 [Example 3-6, 4-(aminomethyl)-6-(quinolin-3-yl)phthalazin-1(2H)-one] | 5100 | 47100
NCc1n[nH]c(=O)c2ccc(-c3ccc(C(F)(F)F)nc3)cc12 [Example 3-8, 4-(aminomethyl)-6-(6-(trifluoromethyl)pyridin-3-yl)phthalazin-1(2H)-one] | > 1e+06 | > 1e+06
NCc1n[nH]c(=O)c2ccc(-c3cnc(C(F)(F)F)nc3)cc12 [Example 3-12, 4-(aminomethyl)-6-(2-(trifluoromethyl)pyrimidin-5-yl)phthalazin-1(2H)-one] | 210000 | > 1e+06
CCc1cncc(-c2ccc3c(=O)[nH]nc(CN)c3c2)c1 [Example 3-13, 4-(aminomethyl)-6-(5-ethylpyridin-3-yl)phthalazin-1(2H)-one] | 110 | 1420
CC(C)c1cncc(-c2ccc3c(=O)[nH]nc(CN)c3c2)c1 [Example 3-14, 4-(aminomethyl)-6-(5-isopropylpyridin-3-yl)phthalazin-1(2H)-one] | 17 | 413
NCc1n[nH]c(=O)c2ccc(-c3cnn4ccccc34)cc12 [Example 3-16, 4-(aminomethyl)-6-(pyrazolo[1,5-a]pyridin-3-yl)phthalazin-1(2H)-one] | 13 | 186
CC(C)n1cc(-c2ccc3c(=O)[nH]nc(CN)c3c2)cn1 [Example 3-17, 4-(aminomethyl)-6-(1-isopropyl-1H-pyrazol-4-yl)phthalazin-1(2H)-one] | 770 | 15100
Cn1nc(C(F)(F)F)cc1-c1ccc2c(=O)[nH]nc(CN)c2c1 [Example 3-20, 4-(aminomethyl)-6-(1-methyl-3-(trifluoromethyl)-1H-pyrazol-5-yl)phthalazin-1(2H)-one] | 53000 | 
CCCn1cc(-c2ccc3c(=O)[nH]nc(CN)c3c2)cn1 [Example 3-23, 4-(aminomethyl)-6-(1-propyl-1H-pyrazol-4-yl)phthalazin-1(2H)-one] | 230 | 6430
Cc1nn(C)c(C)c1-c1ccc2c(=O)[nH]nc(CN)c2c1 [Example 3-24, 4-(aminomethyl)-6-(1,3,5-trimethyl-1H-pyrazol-4-yl)phthalazin-1(2H)-one] | 20000 | > 100000
Cn1cc(-c2ccc3c(=O)[nH]nc(CN)c3c2)c(C(F)(F)F)n1 [Example 3-25, 4-(aminomethyl)-6-(1-methyl-3-(trifluoromethyl)-1H-pyrazol-4-yl)phthalazin-1(2H)-one] | 71000 | > 100000
CC(C)CCn1cc(-c2ccc3c(=O)[nH]nc(CN)c3c2)cn1 [Example 3-26, 4-(aminomethyl)-6-(1-isopentyl-1H-pyrazol-4-yl)phthalazin-1(2H)-one] | 1600 | 20600
CC(C)Cn1cc(-c2ccc3c(=O)[nH]nc(CN)c3c2)cn1 [Example 3-27, 4-(aminomethyl)-6-(1-isobutyl-1H-pyrazol-4-yl)phthalazin-1(2H)-one] | 4200 | 59000
Cn1cc(-c2ccc3c(=O)[nH]nc(CN)c3c2)c2cccnc21 [Example 3-29, 4-(aminomethyl)-6-(1-methyl-1H-pyrrolo[2,3-b]pyridin-3-yl)phthalazin-1(2H)-one] | 10000 | 
